Source: patent US10307498B2, “Cleaning and disinfecting composition” (American Sterilizer Company, priority 2015, dated 2019)

Test: Stability of peracetic acid over a single disinfection cycle at different disinfection solution temperatures, FIGS. 4A-4D
Format: physicochemical
Conditions: PAA alone or combined with builders/part (B)
Excerpt: FIGS. 4A-4D are graphs that show the stability of peracetic acid over the time required for a single disinfection cycle, at different disinfection solution temperatures, and as a function of the presence or absence of two different builders formulations as well as the supplemental medium (B) of the present invention.
In the following Examples 6-8, parts (A) and (B) are as described above for Examples 1-5. Builders 1 contains two sodium phosphates, benzotriazole, tetrasodium ethylene diamine tetraacetate, a sodium molybdate, sodium hydroxide, an ethoxylated polyoxypropylene, a polyacrylate, a sodium phosphate, and water. Builders 2 contains a sodium phosphate, a sodium benzotriazole and a sodium salt of ethylene diamine tetraacetic acid.
FIGS. 4A-4D show the stability of peracetic acid over the time required for a single disinfection cycle (stability), at different disinfection solution temperatures when used alone (FIG. 4A), or in combination with prior art Builders 1 (FIG. 4B) or Builders 2 (FIG. 4C) or the supplemental medium part (B) of the present invention (FIG. 4D). The trend of each line can be used to understand the kinetics of stability (or conversely, the rate and amount of degradation of PAA). […]

CC(=O)OO [PAA, peracetic acid]
stability of PAA solution: relatively stable
